Experimental findings from ChEMBL document CHEMBL5634144, “Design, synthesis and biological evaluation of novel DCLK1 inhibitor containing purine skeleton for the treatment of pancreatic cancer” (Eur J Med Chem, 2023) are described below.

Data set [1] addresses T1, Serine/threonine-protein kinase DCLK1 (Homo sapiens) (UniProt O15075).
T1 sequence (whole entry): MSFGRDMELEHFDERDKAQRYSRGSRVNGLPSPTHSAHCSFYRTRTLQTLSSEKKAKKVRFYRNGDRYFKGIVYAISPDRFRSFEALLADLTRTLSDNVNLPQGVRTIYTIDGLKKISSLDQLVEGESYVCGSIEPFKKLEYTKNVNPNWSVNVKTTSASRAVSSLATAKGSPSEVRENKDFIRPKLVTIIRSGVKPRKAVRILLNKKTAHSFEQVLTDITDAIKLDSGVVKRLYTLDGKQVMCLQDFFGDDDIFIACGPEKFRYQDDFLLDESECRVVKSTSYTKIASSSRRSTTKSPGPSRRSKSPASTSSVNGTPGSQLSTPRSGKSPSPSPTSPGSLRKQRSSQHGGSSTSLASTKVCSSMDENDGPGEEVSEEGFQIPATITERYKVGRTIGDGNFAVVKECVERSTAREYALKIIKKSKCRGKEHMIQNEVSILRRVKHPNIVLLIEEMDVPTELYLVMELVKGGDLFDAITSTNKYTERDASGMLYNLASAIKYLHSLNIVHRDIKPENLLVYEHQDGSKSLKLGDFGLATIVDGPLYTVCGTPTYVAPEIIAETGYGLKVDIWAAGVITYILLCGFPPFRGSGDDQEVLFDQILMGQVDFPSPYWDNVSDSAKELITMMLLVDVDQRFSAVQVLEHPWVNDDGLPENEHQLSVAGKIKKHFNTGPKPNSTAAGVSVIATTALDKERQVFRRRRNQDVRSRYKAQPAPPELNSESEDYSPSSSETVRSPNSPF
Description: Inhibition of DCLK1 (unknown origin) at 200 nM preincubated for 10 mins followed by substrate/ATP addition measured after 60 mins by mobility shift assay relative to control. The note with it: time 70.0 min.

The next data set has as its system HCT-116. Description: Antiproliferative activity against human HCT-116 cells assessed as inhibition cell proliferation incubated for 6 days by MTT assay. To be noted: HCT-116, 144 h. The format is functional, cell-based.
For data set [2], the system named is SW1990. Briefly: Inhibition of colony formation of human SW1990 cells at 2 uM incubated for 6 days by crystal violet staining based analysis. The format is functional, cell-based. The note with it: time 6.0 day.
Data set [3] concerns SW1990. Description: Induction of apoptosis in human SW1990 cells assessed as viable cells at 2 uM incubated for 6 days by Annexin V/PI staining based flow cytometry (reference value: 92.93 %). The format is functional. To be noted: SW1990, 144 h, time 6 day, read-out: Activity.
In data set [4] the test system is SW1990. Briefly: Induction of apoptosis in human SW1990 cells assessed as early apoptotic cells at 2 uM incubated for 6 days by Annexin V/PI staining based flow cytometry (reference value: 4.55 %). The format is functional. To be noted: time 6 day.
Data set [5] has as its system SW1990. Briefly: Induction of cell cycle arrest at G0/G1 phase in human SW1990 cells at 0.5 uM incubated for 6 days by PI staining based flow cytometry (reference value: 49.65 %). The format is functional. To be noted: time 6 day.
For data set [6], the system named is SW1990. Description: Induction of cell cycle arrest at S phase in human SW1990 cells at 1 uM incubated for 6 days by PI staining based flow cytometry (reference value: 21.20 %). The note with it: time 6 day. The format is functional.
Data set [7] deals with SW1990. Briefly: Downregulation of Snail level in human SW1990 cells at 0.5 to 2 uM by Western blot analysis. The class given is functional, cell-based. The note with it: dose 0.5-2 µM.
The subject of data set [8] is SW1990. Description: Upregulation of E-cadherin level in human SW1990 cells at 0.5 to 2 uM by Western blot analysis. The note with it: dose 0.5-2 µM. The format is functional, cell-based.
Data set [9] is described as follows: Metabolic stability in mouse liver microsomes assessed as half life at 1 uM preincubated for 10 mins followed by NADPH measured for 60 mins by LC-MS/MS analysis. The format is ADME, Microsome. The note with it: time 70 min.
A short description of data set [10]: Toxicity in BALB/c nude mouse xenografted with human SW1990 cells assessed as drug tolerance at 30 to 60 mg/kg, ip for 21 days consecutively. The format is organism-based. To be noted: in vivo, 504 h, dose 30-60 mg/kg, time 21 day.
Data set [11] has as its system SW1990. Description: Antitumor activity against human SW1990 cells xenografted in BALB/c nude mouse model assessed as tumor growth inhibition at 60 mg/kg, ip for 21 days consecutively relative to control. The format is functional. The note with it: SW1990, 504 h, time 21 day, read-out: TGI.
The test system of data set [12] is SW1990. Description: Antitumor activity against human SW1990 cells xenografted in BALB/c nude mouse model assessed as change in cell contraction treated intraperitoneally for 21 days consecutively by H and E staining based analysis. The class given is functional. To be noted: dose 30-60 mg/kg, route ip, time 21.0 day.
Data set [13] deals with SW1990. Briefly: Antitumor activity against human SW1990 cells xenografted in BALB/c nude mouse model assessed as decrease in CD133 level at 30 to 60 mg/kg, ip for 21 days consecutively by IHC analysis. The class given is functional, organism-based. To be noted: dose 30-60 mg/kg, time 21.0 day.

Each structure is given as a SMILES string. The source made the active and inactive calls. The calls are words filed in the database; no cut-off is given here.

On to `COc1cc(N2CCN(C)CC2)ccc1Nc1nc(Nc2ccccc2S(=O)(=O)C(C)C)c2nc[nH]c2n1`, for which, in data set [1], the inhibition came to 29.8%. Moreover, the IC50 in the data set on HCT-116 was 3000 nM. Also, the inhibition entry in the data set on SW1990 [2] is “Active”. For the same molecule, the viability at 2 µM in the data set with SW1990 [3] was 61%. Also, the Activity is 21.76% with SW1990 [4]; 52.79% with SW1990 [5]; 19.75% in the data set on SW1990 [6]; “Non-Toxic” in data set [10]; “Dose-Dependent Effect” with SW1990 [12]. Moreover, the result in the data set on SW1990 [7], in the data set on SW1990 [8] and in the data set on SW1990 [13] was Active. For the same molecule, in [9], the half-life at 1 µM is 45.9 min. Moreover, the inhibition in vivo at 60 mg/kg with SW1990 [11] worked out at 68.6%.
